Laboratory results from ChEMBL document CHEMBL5036303, “Cyclic Analogues of the Chemerin C-Terminus Mimic a Loop Conformation Essential for Activating the Chemokine-like Receptor 1” (J Med Chem, 2021).
Where a SMILES comes first, the peptide text is derived from it.

Key:
[1] = Agonist activity at CMKL1 Y268L mutant (unknown origin) expressed in COS-7 cells assessed as increase in calcium flux measured for 40 sec by Fluo-2 AM dye based assay; type: cell-based
Chemerin-like receptor 1 [2] = molecular target: T1, Chemerin-like receptor 1 (Homo sapiens, UniProt Q99788); assay: Agonist activity at wild type CMKL1 (unknown origin) expressed in COS-7 cells assessed as increase in calcium flux measured for 40 sec by Fluo-2 AM dye based assay; type: functional, cell-based
T1 sequence (Q99788 whole entry): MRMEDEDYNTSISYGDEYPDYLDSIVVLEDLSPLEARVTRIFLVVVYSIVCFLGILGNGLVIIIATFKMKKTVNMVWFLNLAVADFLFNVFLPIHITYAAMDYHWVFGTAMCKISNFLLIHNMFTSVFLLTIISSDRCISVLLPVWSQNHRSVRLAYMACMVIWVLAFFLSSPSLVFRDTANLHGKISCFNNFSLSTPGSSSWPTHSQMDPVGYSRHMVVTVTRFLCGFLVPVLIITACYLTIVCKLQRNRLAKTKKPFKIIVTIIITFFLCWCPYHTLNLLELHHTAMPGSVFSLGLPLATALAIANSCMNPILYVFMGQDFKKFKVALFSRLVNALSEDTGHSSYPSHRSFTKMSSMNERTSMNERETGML

Chemerin-like receptor 1 [3] = molecular target: T1, Chemerin-like receptor 1; assay: Agonist activity at Wild type CMKL1 (unknown origin) expressed in COS-7 cells assessed as accumulation of inositol phosphate incubated for 3 hrs by liquid scintillation counting method; type: functional, cell-based
[4] = Agonist activity at CMKL1 E658A mutant (unknown origin) expressed in COS-7 cells assessed as increase in calcium flux measured for 40 sec by Fluo-2 AM dye based assay; type: cell-based
[5] = Agonist activity at CMKL1 F479A mutant (unknown origin) expressed in COS-7 cells assessed as increase in calcium flux measured for 40 sec by Fluo-2 AM dye based assay; type: cell-based
[6] = Agonist activity at CMKL1 E658A mutant (unknown origin) expressed in COS-7 cells assessed as accumulation of inositol phosphate incubated for 3 hrs by liquid scintillation counting method; type: cell-based; conditions: COS-7, 3 h
[7] = Agonist activity at CMKL1 Y268A mutant (unknown origin) expressed in COS-7 cells assessed as increase in calcium flux measured for 40 sec by Fluo-2 AM dye based assay; type: cell-based
[8] = Agonist activity at CMKL1 F476A mutant (unknown origin) expressed in COS-7 cells assessed as accumulation of inositol phosphate incubated for 3 hrs by liquid scintillation counting method; type: cell-based; conditions: COS-7, 3 h
[9] = Agonist activity at CMKL1 F479A mutant (unknown origin) expressed in COS-7 cells assessed as accumulation of inositol phosphate incubated for 3 hrs by liquid scintillation counting method; type: cell-based; conditions: COS-7, 3 h
[10] = Agonist activity at CMKL1 Y263A mutant (unknown origin) expressed in COS-7 cells assessed as increase in calcium flux measured for 40 sec by Fluo-2 AM dye based assay; type: cell-based
[11] = Agonist activity at CMKL1 F476A mutant (unknown origin) expressed in COS-7 cells assessed as increase in calcium flux measured for 40 sec by Fluo-2 AM dye based assay; type: cell-based

In the case of `CC(C)C[C@H](NC(=O)[C@H](CCC(N)=O)NC(=O)CNC(=O)[C@@H]1CCCN1C(=O)[C@H](Cc1ccccc1)NC(=O)[C@@H](N)Cc1ccc(O)cc1)C(=O)N[C@@H](C)C(=O)N[C@@H](Cc1ccccc1)C(=O)N[C@@H](CO)C(=O)O`, the EC50 ([1]; read-out: EC50) is reported as over 1000 nM, the EC50 ([1]; read-out: pEC50 (converted)) is reported as over 1000 nM and the EC50 (Chemerin-like receptor 1 [2]) is reported as 195 nM.

Work on `C[C@H](NC(=O)[C@H](Cc1ccccc1)NC(=O)[C@H](CCC(N)=O)NC(=O)CNC(=O)[C@@H]1CCCN1C(=O)[C@H](Cc1ccccc1)NC(=O)[C@@H](N)Cc1ccc(O)cc1)C(=O)NCc1ccccc1` yielded an EC50 (Chemerin-like receptor 1 [2]) of 32 nM.

In the case of `C[C@H](NC(=O)[C@H](Cc1ccccc1)NC(=O)[C@H](CCC(N)=O)NC(=O)CNC(=O)[C@@H]1CCCN1C(=O)[C@H](Cc1ccccc1)NC(=O)[C@@H](N)Cc1ccc(O)cc1)C(=O)N[C@@H](Cc1ccccc1)C(=O)O` (H-YFPGQFAF-OH), the EC50 (Chemerin-like receptor 1 [2]) is reported as 20 nM.

Work on `C[C@@H]1NC(=O)[C@H](Cc2ccccc2)NC(=O)[C@H](CCC(N)=O)NC(=O)[C@@H](NC(=O)[C@@H]2CCCN2C(=O)[C@H](Cc2ccccc2)NC(=O)[C@@H](N)Cc2ccc(O)cc2)CSSC[C@@H](C(=O)O)NC(=O)[C@H](Cc2ccccc2)NC1=O` (HELM PEPTIDE1{Y.F.P.C.Q.F.A.F.C}$PEPTIDE1,PEPTIDE1,4:R3-9:R3$$$V2.0) yielded an EC50 (Chemerin-like receptor 1 [3]) of 150 nM and an EC50 (Chemerin-like receptor 1 [2]) of 64 nM.

In the case of `C[C@@H]1NC(=O)[C@H](Cc2ccccc2)NC(=O)[C@H](CCC(N)=O)NC(=O)[C@H](NC(=O)[C@@H]2CCCN2C(=O)[C@H](Cc2ccccc2)NC(=O)[C@@H](N)Cc2ccc(O)cc2)CCSSC[C@@H](C(=O)O)NC(=O)[C@H](Cc2ccccc2)NC1=O` (HELM PEPTIDE1{Y.F.P.[O=C([C@@H](CCS[*:3])N[*:1])[*:2]].Q.F.A.F.C}$PEPTIDE1,PEPTIDE1,4:R3-9:R3$$$V2.0), the EC50 ([4]; read-out: EC50) is reported as over 1000 nM, the EC50 ([4]; read-out: pEC50 (converted)) is reported as over 1000 nM and the EC50 ([5]; read-out: EC50) is reported as over 1000 nM. For the same compound, the EC50 ([5]; read-out: pEC50 (converted)) was over 1000 nM, the EC50 ([6]; read-out: EC50) was over 10000 nM and the EC50 ([6]; read-out: pEC50 (converted)) was over 10000 nM. It also gave an EC50 ([7]; read-out: EC50) of over 1000 nM, an EC50 ([7]; read-out: pEC50 (converted)) of over 1000 nM and an EC50 [8] of 3890 nM. For the same compound, the EC50 [9] was over 10000 nM, the EC50 ([10]; read-out: EC50) was 197 nM and the EC50 ([10]; read-out: pEC50 (converted)) was 200 nM. It also gave an EC50 ([11]; read-out: EC50) of 85 nM and an EC50 ([11]; read-out: pEC50 (converted)) of 85.1 nM.
